Experimental data taken from publication PMC7660650, “Chemical Starting Matter for HNF4α Ligand Discovery and Chemogenomics” (International Journal of Molecular Sciences, 2020).

molecular target: T1, Gal4-HNF4α (human HNF4α LBD) (Homo sapiens, UniProt P41235); assay: Hybrid Gal4-HNF4α reporter gene assay in transiently transfected HEK293T cells; assay type: cell-based; conditions: not given
T1 construct: uniprot entry: P41235-1, residues 142-377; expressed in transfected cells; host or cells: HEK293T
T1 sequence (P41235 142-377): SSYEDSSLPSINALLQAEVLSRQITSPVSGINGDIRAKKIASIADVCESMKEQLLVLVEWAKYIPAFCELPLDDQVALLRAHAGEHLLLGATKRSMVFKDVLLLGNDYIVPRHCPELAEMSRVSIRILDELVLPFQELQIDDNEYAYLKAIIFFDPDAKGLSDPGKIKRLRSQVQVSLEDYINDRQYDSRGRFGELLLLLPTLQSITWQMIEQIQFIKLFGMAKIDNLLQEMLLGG

SMILES | HNF4a-screening_activity_(mean_of_n=2)
c1ccc(C2COCCN2)cc1 (stereo not shown) [Prestw-Frag-3705, C1COCC(N1)c1ccccc1] | 0.9945

same assay, conditions: Table S1, primary screening, 50 µM

SMILES | HNF4a-screening_activity_(mean_of_n=2)
Nc1ncc([N+](=O)[O-])s1 [Prestw-Frag-3324, Nc1ncc(s1)[N+]([O-])=O] | 0.8744
Nc1ncnc2c1ncn2CCO [Prestw-Frag-3329, Nc1ncnc2n(CCO)cnc12] | 1.131
O=C(c1ccc(C(F)(F)F)cc1)C1CCCCC1 [Prestw-Frag-3334, FC(F)(F)c1ccc(cc1)C(=O)C1CCCCC1] | 1.014
NC(=O)c1ccc2[nH]ccc2c1 [Prestw-Frag-3336, NC(=O)c1ccc2[nH]ccc2c1] | 1.118
Nc1ccc(CS(=O)(=O)N2CCCC2)cc1 [Prestw-Frag-3341, Nc1ccc(CS(=O)(=O)N2CCCC2)cc1] | 1.256
COc1ccc(CC(C)N)cc1 (stereo not shown) [Prestw-Frag-3342, COc1ccc(CC(C)N)cc1] | 1.446
c1nc(NC2CC2)c2nc[nH]c2n1 [Prestw-Frag-3360, C1CC1Nc1ncnc2[nH]cnc12] | 1.055
CS(=O)(=O)NC(Cc1ccccc1)C(=O)O (stereo not shown) [Prestw-Frag-3362, CS(=O)(=O)NC(Cc1ccccc1)C(O)=O] | 1.241
CNS(=O)(=O)CCc1ccccc1 [Prestw-Frag-3368, CNS(=O)(=O)CCc1ccccc1] | 1.162
COC(=O)CN1CCc2sccc2C1 [Prestw-Frag-3371, COC(=O)CN1CCc2sccc2C1] | 1.101
CCOC(=O)c1cccnc1 [Prestw-Frag-3382, CCOC(=O)c1cccnc1] | 1.112
O=C(CCCN1CCNCC1)c1ccc(F)cc1 [Prestw-Frag-3426, Fc1ccc(cc1)C(=O)CCCN1CCNCC1] | 1.191
CNCCN(C)C(c1ccccc1)c1ccccc1 [Prestw-Frag-3452, CNCCN(C)C(c1ccccc1)c1ccccc1] | 1.151
COc1ccc(CCN)cc1OC [Prestw-Frag-3454, COc1ccc(CCN)cc1OC] | 1.113
Oc1ccc(Cc2ccccc2)cc1 [Prestw-Frag-3455, Oc1ccc(Cc2ccccc2)cc1] | 0.7887
O=C1CNCCN1 [Prestw-Frag-3458, O=C1CNCCN1] | 1.246
O=C1CN(Cc2ccccc2)CCN1 [Prestw-Frag-3459, O=C1CN(Cc2ccccc2)CCN1] | 1.076
CN1CCNCC1=O [Prestw-Frag-3460, CN1CCNCC1=O] | 1.233
Cn1cc(CC(=O)O)c2ccccc21 [Prestw-Frag-3461, Cn1cc(CC(O)=O)c2ccccc12] | 1.168
NC1CCc2ccccc21 (stereo not shown) [Prestw-Frag-3462, NC1CCc2ccccc12] | 1.151
O=C1COCCN1 [Prestw-Frag-3463, O=C1COCCN1] | 1.252
Cn1ccc(=O)[nH]1 [Prestw-Frag-3664, Cn1ccc(=O)[nH]1] | 1.182

SMILES | HNF4a-screening_activity_(mean_of_n=2)
O=C1Cc2cc(F)ccc2N1 [Prestw-Frag-3667, Fc1ccc2NC(=O)Cc2c1] | 0.8142
O=C(O)CC1CCCCC1 [Prestw-Frag-3668, OC(=O)CC1CCCCC1] | 0.9215
C#Cc1cccc(N)c1 [Prestw-Frag-3669, Nc1cccc(c1)C#C] | 1.159
CN1CCN(c2ccc(N)cc2)CC1 [Prestw-Frag-3670, CN1CCN(CC1)c1ccc(N)cc1] | 1.015
CCN1CCCC1CN (stereo not shown) [Prestw-Frag-3671, CCN1CCCC1CN] | 1.171
Fc1ccc(CN2CCNCC2)cc1 [Prestw-Frag-3673, Fc1ccc(CN2CCNCC2)cc1] | 1.124
O=C(c1ccccc1)N1CCNCC1 [Prestw-Frag-3677, O=C(N1CCNCC1)c1ccccc1] | 0.9693
COc1ccc2[nH]cnc2c1 [Prestw-Frag-3678, COc1ccc2[nH]cnc2c1] | 0.9895
Nc1cnc2ccccc2n1 [Prestw-Frag-3679, Nc1cnc2ccccc2n1] | 0.8882
O=C1CC2(CCCC2)CC(=O)N1 [Prestw-Frag-3680, O=C1CC2(CCCC2)CC(=O)N1] | 0.8965
Nc1ccc2c(c1)CCCC2 [Prestw-Frag-3682, Nc1ccc2CCCCc2c1] | 0.958
CC(=O)c1ccc2c(c1)OCO2 [Prestw-Frag-3686, CC(=O)c1ccc2OCOc2c1] | 0.9343
NCc1ncc[nH]1 [Prestw-Frag-3689, NCc1ncc[nH]1] | 0.8561
CNC(=O)c1c(-c2ccccc2)noc1C [Prestw-Frag-3690, CNC(=O)c1c(C)onc1-c1ccccc1] | 0.8222
CN1CCN(CCCC(=O)c2ccc(F)cc2)CC1 [Prestw-Frag-3692, CN1CCN(CCCC(=O)c2ccc(F)cc2)CC1] | 1.385
CN(C)CCCC(=O)c1ccc(F)cc1 [Prestw-Frag-3693, CN(C)CCCC(=O)c1ccc(F)cc1] | 1.093
Oc1cccc2[nH]ccc12 [Prestw-Frag-3696, Oc1cccc2[nH]ccc12] | 0.9739
COc1cc2c(cc1OC)CC(=O)NCC2 [Prestw-Frag-3698, COc1cc2CCNC(=O)Cc2cc1OC] | 1.019
O=C1COc2cc(O)ccc21 [Prestw-Frag-3703, Oc1ccc2C(=O)COc2c1] | 1.217
CNC(=O)c1c(OC)ccc(Br)c1OC [Prestw-Frag-3704, CNC(=O)c1c(OC)ccc(Br)c1OC] | 1.072
CC(C(=O)O)c1cccc(F)c1 (stereo not shown) [Prestw-Frag-3706, CC(C(O)=O)c1cccc(F)c1] | 1.072
NC1CCc2[nH]c3ccccc3c2C1 (stereo not shown) [Prestw-Frag-3709, NC1CCc2[nH]c3ccccc3c2C1] | 1.209

SMILES | HNF4a-screening_activity_(mean_of_n=2)
O=C(O)C(c1ccccc1)c1ccccc1 [Prestw-Frag-3711, OC(=O)C(c1ccccc1)c1ccccc1] | 1.082
c1ccc(C2CCCNCC2)cc1 (stereo not shown) [Prestw-Frag-3712, C1CNCCC(C1)c1ccccc1] | 1.122
Oc1ccc2c(c1)CCC2 [Prestw-Frag-3713, Oc1ccc2CCCc2c1] | 1.011
NC1CCC(=O)NC1=O (stereo not shown) [Prestw-Frag-3716, NC1CCC(=O)NC1=O] | 1.139
CC(O)(C(=O)O)c1ccccc1 (stereo not shown) [Prestw-Frag-3717, CC(O)(C(O)=O)c1ccccc1] | 1.037
O=C1CNCN1 [Prestw-Frag-3718, O=C1CNCN1] | 1.053
c1cncc(CN2CCNCC2)c1 [Prestw-Frag-3722, C(N1CCNCC1)c1cccnc1] | 0.9979
NC(=O)N1CCNCC1 [Prestw-Frag-3723, NC(=O)N1CCNCC1] | 1.067
Cc1n[nH]c(C)c1N [Prestw-Frag-3724, Cc1n[nH]c(C)c1N] | 0.9198
FC(F)(F)c1cc[nH]n1 [Prestw-Frag-3726, FC(F)(F)c1cc[nH]n1] | 0.9056
OCC1CCNCC1 [Prestw-Frag-3727, OCC1CCNCC1] | 0.8559
OCC1CCCNC1 (stereo not shown) [Prestw-Frag-3728, OCC1CCCNC1] | 1.103
c1cc(N2CCNCC2)ncn1 [Prestw-Frag-3729, C1CN(CCN1)c1ccncn1] | 1.017
N#CCC(=O)N1CCCCC1 [Prestw-Frag-3730, O=C(CC#N)N1CCCCC1] | 0.9277
CCN(CC)C(=O)CC#N [Prestw-Frag-3731, CCN(CC)C(=O)CC#N] | 0.9542
c1ccc2c(c1)NCCO2 [Prestw-Frag-3732, C1COc2ccccc2N1] | 1.144
CC(C)(CN)c1ccccc1 [Prestw-Frag-3733, CC(C)(CN)c1ccccc1] | 1.132
O=c1[nH]cncc1-c1ccccc1 [Prestw-Frag-3734, O=c1[nH]cncc1-c1ccccc1] | 1.236
Oc1ccccc1N1CCNCC1 [Prestw-Frag-3738, Oc1ccccc1N1CCNCC1] | 0.9708
COc1ccc2c(c1)CCC(C(=O)O)C2 (stereo not shown) [Prestw-Frag-3739, COc1ccc2CC(CCc2c1)C(O)=O] | 0.6963
Cn1c(N)nc2ccccc21 [Prestw-Frag-3740, Cn1c(N)nc2ccccc12] | 1.19
OCc1ccc2c(c1)OCO2 [Prestw-Frag-3741, OCc1ccc2OCOc2c1] | 1.114
